Test in all cases: biochemical
Common to all, as to set-up: DiscoverX KinomeScan competition binding assay across human kinases; per cent of control at 10 and 100 uM

For experiment [1], the target named is T1, ABL1(F317I)-phosphorylated (Homo sapiens, UniProt P00519, F317I).
T1 construct: phosphorylated
Conditions: competition binding, % of control; read-out: Percent Control (100 uM Levosimendan). In short, it runs like this: (§1)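 Binding is expressed as %control, normalised between positive and negative control signals. The compound (levosimendan) was tested at 10 μM and 100 μM in the DiscoverX KinomeScan competition binding format against human kinases.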

The target in the next experiment is ACVR1 (Homo sapiens, UniProt Q04771). The note with it: competition binding, % of control. In short, it runs like this: as §1
ACVR1, sequence (Q04771 whole entry): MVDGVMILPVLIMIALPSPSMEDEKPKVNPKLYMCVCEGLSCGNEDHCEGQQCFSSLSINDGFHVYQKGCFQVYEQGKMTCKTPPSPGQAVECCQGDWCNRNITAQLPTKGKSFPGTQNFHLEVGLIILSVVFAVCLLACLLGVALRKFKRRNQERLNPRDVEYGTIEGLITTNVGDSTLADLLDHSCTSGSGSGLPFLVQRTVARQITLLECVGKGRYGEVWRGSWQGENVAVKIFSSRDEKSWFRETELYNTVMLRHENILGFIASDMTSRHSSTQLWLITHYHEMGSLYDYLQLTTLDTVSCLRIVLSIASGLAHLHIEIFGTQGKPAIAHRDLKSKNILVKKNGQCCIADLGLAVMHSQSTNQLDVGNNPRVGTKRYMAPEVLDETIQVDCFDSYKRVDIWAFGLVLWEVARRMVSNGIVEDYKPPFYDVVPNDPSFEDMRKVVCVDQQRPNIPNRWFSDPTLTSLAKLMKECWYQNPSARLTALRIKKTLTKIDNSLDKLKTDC
The target of another experiment is CAMK1G (Homo sapiens, UniProt Q96NX5). The note with it: competition binding, % of control; read-out: Percent Control (100 uM Levosimendan). The method, boiled down: as §1
The target of another experiment is CAMKK2 (Homo sapiens, UniProt Q96RR4). The note with it: competition binding, % of control; read-out: Percent Control (100 uM Levosimendan). The method, boiled down:
as §1

Another experiment deals with CDKL1 (Homo sapiens, UniProt Q00532). The note with it: competition binding, % of control. The method, boiled down: as §1
CDKL1, sequence (Q00532 whole entry): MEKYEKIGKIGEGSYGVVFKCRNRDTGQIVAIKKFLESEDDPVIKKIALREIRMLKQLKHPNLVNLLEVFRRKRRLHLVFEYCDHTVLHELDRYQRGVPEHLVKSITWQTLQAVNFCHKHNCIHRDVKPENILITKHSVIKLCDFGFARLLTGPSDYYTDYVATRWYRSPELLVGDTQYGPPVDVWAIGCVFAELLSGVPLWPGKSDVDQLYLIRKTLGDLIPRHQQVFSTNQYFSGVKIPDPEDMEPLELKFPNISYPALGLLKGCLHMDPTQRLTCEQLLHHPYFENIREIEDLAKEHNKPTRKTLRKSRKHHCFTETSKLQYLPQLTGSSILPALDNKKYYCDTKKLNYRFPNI
In the next experiment the target is CIT (Homo sapiens, UniProt O14578). The note with it: competition binding, % of control; read-out: Percent Control (100 uM Levosimendan). The method, boiled down: as §1
CIT, sequence (O14578 whole entry): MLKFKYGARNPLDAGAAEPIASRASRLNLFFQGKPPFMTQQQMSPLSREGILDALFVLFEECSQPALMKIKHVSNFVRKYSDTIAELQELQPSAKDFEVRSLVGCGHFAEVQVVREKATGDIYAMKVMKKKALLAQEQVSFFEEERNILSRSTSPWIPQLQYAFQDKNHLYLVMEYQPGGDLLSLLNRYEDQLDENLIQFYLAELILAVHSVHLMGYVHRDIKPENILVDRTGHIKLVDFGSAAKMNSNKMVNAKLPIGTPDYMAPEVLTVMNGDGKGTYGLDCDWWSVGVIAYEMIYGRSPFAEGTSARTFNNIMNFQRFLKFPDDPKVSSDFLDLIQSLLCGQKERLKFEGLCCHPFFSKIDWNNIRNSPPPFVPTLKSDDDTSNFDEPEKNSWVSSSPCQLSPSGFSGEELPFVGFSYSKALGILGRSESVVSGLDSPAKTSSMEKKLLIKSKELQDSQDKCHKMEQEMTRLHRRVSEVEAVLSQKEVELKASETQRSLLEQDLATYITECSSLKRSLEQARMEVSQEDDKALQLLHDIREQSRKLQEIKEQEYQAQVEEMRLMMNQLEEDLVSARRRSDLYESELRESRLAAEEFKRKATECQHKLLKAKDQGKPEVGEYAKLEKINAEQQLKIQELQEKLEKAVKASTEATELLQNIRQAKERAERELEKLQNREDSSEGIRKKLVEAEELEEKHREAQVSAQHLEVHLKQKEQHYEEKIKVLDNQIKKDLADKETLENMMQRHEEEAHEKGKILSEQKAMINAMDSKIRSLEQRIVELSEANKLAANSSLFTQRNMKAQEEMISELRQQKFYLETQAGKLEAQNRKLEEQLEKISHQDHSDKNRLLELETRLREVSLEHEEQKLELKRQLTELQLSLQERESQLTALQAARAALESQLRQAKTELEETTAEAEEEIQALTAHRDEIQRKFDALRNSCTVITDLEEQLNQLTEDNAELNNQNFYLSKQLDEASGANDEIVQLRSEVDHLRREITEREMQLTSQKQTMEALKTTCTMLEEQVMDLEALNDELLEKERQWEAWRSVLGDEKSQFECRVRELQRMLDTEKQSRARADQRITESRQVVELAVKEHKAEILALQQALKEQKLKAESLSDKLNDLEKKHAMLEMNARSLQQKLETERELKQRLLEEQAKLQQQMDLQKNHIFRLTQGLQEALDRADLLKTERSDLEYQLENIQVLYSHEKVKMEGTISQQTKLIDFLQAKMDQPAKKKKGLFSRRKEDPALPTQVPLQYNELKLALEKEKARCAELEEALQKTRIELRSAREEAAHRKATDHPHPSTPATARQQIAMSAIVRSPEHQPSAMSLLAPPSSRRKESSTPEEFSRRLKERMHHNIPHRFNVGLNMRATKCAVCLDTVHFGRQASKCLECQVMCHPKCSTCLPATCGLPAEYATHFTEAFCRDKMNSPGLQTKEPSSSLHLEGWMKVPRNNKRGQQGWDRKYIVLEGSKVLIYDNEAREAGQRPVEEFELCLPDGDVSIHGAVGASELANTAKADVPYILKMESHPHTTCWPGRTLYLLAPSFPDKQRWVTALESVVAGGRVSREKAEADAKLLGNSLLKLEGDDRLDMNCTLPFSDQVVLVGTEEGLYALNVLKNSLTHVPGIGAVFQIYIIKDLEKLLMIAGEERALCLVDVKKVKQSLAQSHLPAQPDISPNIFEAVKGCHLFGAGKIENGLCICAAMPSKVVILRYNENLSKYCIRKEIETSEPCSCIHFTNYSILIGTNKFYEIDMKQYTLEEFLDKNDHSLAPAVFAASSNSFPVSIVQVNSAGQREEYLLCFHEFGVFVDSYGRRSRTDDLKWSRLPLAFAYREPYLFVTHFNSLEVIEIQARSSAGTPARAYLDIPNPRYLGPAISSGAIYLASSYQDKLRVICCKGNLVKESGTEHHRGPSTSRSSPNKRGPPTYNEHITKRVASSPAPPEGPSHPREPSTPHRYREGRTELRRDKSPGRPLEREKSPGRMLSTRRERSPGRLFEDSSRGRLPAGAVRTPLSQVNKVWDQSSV
Another experiment concerns the target CSNK1E (Homo sapiens, UniProt P49674). The note with it: competition binding, % of control; read-out: Percent Control (100 uM Levosimendan). The method, boiled down: as §1
A further experiment deals with CSNK1G2 (Homo sapiens, UniProt P78368). The note with it: competition binding, % of control. In short, it runs like this: as §1
CSNK1G2, sequence (P78368 whole entry): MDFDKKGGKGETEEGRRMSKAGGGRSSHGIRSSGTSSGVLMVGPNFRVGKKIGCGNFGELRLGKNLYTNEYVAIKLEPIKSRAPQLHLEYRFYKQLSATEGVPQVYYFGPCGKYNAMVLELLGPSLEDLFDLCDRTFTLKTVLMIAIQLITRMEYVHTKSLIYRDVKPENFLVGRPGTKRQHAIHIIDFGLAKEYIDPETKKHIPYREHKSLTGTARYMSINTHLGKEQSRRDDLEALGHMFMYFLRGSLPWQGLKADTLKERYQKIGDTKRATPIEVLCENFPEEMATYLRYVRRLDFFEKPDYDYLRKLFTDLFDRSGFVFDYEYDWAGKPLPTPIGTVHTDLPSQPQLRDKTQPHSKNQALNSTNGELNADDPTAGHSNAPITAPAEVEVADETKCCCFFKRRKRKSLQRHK
A further experiment has as its target CSNK1G3 (Homo sapiens, UniProt Q9Y6M4). The note with it: competition binding, % of control. In short, it runs like this: as §1
Experiment [2] concerns the target EGFR(L747-E749del, A750P) (Homo sapiens, UniProt P00533, A750P/DEL747-749). The note with it: competition binding, % of control; read-out: Percent Control (100 uM Levosimendan). The method, boiled down: as §1
Another experiment addresses EPHB1 (Homo sapiens, UniProt P54762). The note with it: competition binding, % of control; read-out: Percent Control (100 uM Levosimendan). The method, boiled down: as §1
The next experiment addresses EPHB3 (Homo sapiens, UniProt P54753). The note with it: competition binding, % of control; read-out: Percent Control (100 uM Levosimendan). In short, it runs like this: as §1
The next experiment concerns the target ERBB3 (Homo sapiens, UniProt P21860). The note with it: competition binding, % of control; read-out: Percent Control (100 uM Levosimendan). The method, boiled down: as §1
Another experiment has as its target FER (Homo sapiens, UniProt P16591). The note with it: competition binding, % of control; read-out: Percent Control (100 uM Levosimendan). In short, it runs like this:
as §1

The target of experiment [3] is T2, JAK3(JH1domain-catalytic) (Homo sapiens, UniProt P52333).
T2 construct: JH1domain-catalytic
Conditions: competition binding, % of control; read-out: Percent Control (100 uM Levosimendan). The method, boiled down:
as §1

Another experiment addresses T3, PFTAIRE2 (Homo sapiens, UniProt Q96Q40).
T3 construct: gene CDK15
The note with it: competition binding, % of control; read-out: Percent Control (100 uM Levosimendan). In short, it runs like this:
as §1

The next experiment deals with PIK3CA(H1047L) (Homo sapiens, UniProt P42336, H1047L). The note with it: competition binding, % of control; read-out: Percent Control (100 uM Levosimendan). The method, boiled down:
as §1

Another experiment concerns the target T4, p38-alpha (Homo sapiens, UniProt Q16539).
T4 construct: gene MAPK14
Conditions: competition binding, % of control; read-out: Percent Control (100 uM Levosimendan). In short, it runs like this: as §1

[4] abbreviates: read-out: Percent Control (10 uM Levosimendan).
Setting [5] is: read-out: Percent Control (100 uM Levosimendan).

Structures are written as SMILES.

CSNK1G3, sequence (Q9Y6M4 whole entry): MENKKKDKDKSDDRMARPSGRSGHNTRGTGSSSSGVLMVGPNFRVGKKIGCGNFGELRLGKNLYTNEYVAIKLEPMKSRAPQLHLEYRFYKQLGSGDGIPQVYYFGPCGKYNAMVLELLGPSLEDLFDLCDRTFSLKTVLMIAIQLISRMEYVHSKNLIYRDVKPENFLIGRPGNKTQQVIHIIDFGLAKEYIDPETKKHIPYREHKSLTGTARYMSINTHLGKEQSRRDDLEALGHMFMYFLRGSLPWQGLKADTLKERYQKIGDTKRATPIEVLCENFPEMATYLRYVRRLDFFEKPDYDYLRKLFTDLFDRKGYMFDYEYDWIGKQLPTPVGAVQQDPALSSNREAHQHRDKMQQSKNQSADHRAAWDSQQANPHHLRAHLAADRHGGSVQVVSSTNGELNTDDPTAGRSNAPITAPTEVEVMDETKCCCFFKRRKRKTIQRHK
EGFR(L747-E749del, A750P), sequence (P00533 with tags, fused parts or gaps DEL747-749/A750P): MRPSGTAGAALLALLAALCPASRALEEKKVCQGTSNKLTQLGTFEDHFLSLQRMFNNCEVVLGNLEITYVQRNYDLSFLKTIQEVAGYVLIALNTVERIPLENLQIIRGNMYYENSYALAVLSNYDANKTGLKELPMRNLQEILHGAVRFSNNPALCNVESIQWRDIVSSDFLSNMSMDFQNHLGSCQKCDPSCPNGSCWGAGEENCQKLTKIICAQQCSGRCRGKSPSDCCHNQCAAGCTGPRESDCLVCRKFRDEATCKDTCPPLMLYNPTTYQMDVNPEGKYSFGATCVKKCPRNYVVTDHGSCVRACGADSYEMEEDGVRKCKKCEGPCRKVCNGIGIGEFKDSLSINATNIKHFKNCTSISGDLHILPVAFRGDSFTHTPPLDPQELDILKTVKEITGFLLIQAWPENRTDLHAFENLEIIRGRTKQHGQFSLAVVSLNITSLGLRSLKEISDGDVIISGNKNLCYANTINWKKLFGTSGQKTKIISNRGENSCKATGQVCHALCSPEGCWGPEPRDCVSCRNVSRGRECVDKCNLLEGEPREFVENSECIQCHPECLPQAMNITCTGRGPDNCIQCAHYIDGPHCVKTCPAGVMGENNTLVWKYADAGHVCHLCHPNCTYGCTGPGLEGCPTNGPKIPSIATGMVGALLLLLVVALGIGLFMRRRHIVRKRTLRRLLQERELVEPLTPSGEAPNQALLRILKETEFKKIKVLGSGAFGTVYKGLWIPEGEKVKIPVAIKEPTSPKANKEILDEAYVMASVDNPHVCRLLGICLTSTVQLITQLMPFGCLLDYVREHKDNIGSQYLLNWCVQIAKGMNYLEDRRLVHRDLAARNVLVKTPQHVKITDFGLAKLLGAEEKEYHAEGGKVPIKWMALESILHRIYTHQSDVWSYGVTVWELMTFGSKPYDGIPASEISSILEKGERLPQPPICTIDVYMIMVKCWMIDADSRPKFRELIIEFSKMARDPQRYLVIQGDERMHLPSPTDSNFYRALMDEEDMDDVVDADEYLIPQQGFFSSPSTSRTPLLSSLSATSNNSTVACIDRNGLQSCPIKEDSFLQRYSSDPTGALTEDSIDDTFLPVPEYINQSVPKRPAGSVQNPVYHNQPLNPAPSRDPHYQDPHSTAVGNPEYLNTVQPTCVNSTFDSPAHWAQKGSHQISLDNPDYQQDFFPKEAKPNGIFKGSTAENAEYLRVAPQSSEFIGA

`C[C@@H]1CC(=O)NN=C1c1ccc(NN=C(C#N)C#N)cc1` [levosimendan]: the remaining binding at 100 µM is 100% in [1]; 6.5% on ACVR1 (setting [5]); 62% at CAMK1G; 54% on CAMKK2; 47% at CDKL1 (setting [5]); 59% at CIT. The remaining binding at 100 µM on CSNK1E worked out at 63%; at CSNK1G2 (setting [5]), 4.8%; on CSNK1G3 (setting [5]) it was 36%; in experiment [2], 64%; at EPHB1, 96%; on EPHB3 it was 96%. The remaining binding at 100 µM is 75% at ERBB3; 100% at FER; 75% in experiment [3]; 85% on PFTAIRE2; 100% on PIK3CA(H1047L); 97% at p38-alpha. For the same molecule, the remaining binding at 10 µM at ACVR1 (setting [4]) is 55%; at CDKL1 (setting [4]), 88%; on CSNK1G2 (setting [4]), 62%; on CSNK1G3 (setting [4]), 83%.

(Values after paper PMC6576746, “Rational discovery of dual-indication multi-target PDE/Kinase inhibitor for precision anti-cancer therapy using structural systems pharmacology” (PLoS Computational Biology, 2019).)
